Molecular target: Human PKK (Homo sapiens (Human), UniProt P03952)
Assay: Inhibition of PKK, endpoint assay (human PKK)
Format: biochemical
Conditions: substrate H-Pro-Phe-Arg-AMC, 1 h room temperature
Description: Subsequently, PPACK II (Calbiochem) was added as a stop solution to achieve a final concentration of 1 μM and fluorescence was measured using an Envision Reader (PerkinElmer) with the wavelength excitation setting of 355 nm and the wavelength emission setting of 460 nm.

Sequence of Human PKK (P03952 391-638): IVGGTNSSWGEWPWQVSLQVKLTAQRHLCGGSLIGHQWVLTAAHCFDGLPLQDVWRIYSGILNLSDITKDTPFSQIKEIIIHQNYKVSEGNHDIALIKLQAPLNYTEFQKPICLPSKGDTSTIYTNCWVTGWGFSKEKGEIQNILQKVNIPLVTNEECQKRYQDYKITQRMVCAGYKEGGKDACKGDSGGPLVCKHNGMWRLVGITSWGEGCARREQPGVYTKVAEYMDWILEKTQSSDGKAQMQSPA
Sequence of Human PKK (P03952 20-390 partner): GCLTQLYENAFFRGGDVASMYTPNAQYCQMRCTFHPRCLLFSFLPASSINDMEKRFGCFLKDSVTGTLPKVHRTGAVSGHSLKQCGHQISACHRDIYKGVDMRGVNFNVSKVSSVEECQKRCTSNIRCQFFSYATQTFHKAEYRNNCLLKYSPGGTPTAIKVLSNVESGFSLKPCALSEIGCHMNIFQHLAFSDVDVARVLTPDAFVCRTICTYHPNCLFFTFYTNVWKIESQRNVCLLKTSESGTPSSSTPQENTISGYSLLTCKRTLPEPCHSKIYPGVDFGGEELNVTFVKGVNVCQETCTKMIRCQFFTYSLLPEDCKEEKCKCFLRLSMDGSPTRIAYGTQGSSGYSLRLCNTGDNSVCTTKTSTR

Row | Structure (SMILES) | IC50 [nM]
1 | Cc1nc(N2CC3CC3C2)ccc1Cn1cc(C(=O)N[C@H]2CCc3c(C)n[nH]c32)cn1 (stereo partly drawn) [Example 2, 1-[(6-{3-Azabicyclo[3.1.0]hexan-3-yl}-2-methylpyridin-3-yl)methyl]-N-[(6S)-3-methyl-1H,4H,5H,6H-cyclopenta[c]pyrazol-6-yl]-1H-pyrazole-4-carboxamide] | 32
2 | Cc1nc(N2CC3C(C2)C3(F)F)ccc1Cn1cc(C(=O)N[C@H]2CCc3c(C)n[nH]c32)cn1 (stereo partly drawn) [Example 4, 1-[(6-{6,6-Difluoro-3-azabicyclo[3.1.0]hexan-3-yl}-2-methylpyridin-3-yl)methyl]-N-[(6S)-3-methyl-1H,4H,5H,6H-cyclopenta[c]pyrazol-6-yl]-1H-pyrazole-4-carboxamide] | 9
3 | Cc1nc(N2CC3CC3C2)ccc1Cn1ncc(C(=O)N[C@@H]2CCc3c(C)n[nH]c32)n1 (stereo partly drawn) [Example 10, 2-[(6-{3-Azabicyclo[3.1.0]hexan-3-yl}-2-methylpyridin-3-yl)methyl]-N-[(6R)-3-methyl-1H,4H,5H,6H-cyclopenta[c]pyrazol-6-yl]-2H-1,2,3-triazole-4-carboxamide] | 26
4 | Cc1nc(N2CC3C(C2)C3(F)F)ccc1Cn1cc(C(=O)N[C@@H]2CCc3c(C)n[nH]c32)c(C)n1 (stereo partly drawn) [Example 18, 1-[(6-{6,6-Difluoro-3-azabicyclo[3.1.0]hexan-3-yl}-2-methylpyridin-3-yl)methyl]-3-methyl-3-methyl-N-[(6R)-3-methyl-1H,4H,5H,6H-cyclopenta[c]pyrazol-6-yl]-1H-pyrazole-4-carboxamide] | 0.9
5 | Cc1nc(N2CC3(CC3)C2)ccc1Cn1cc(C(=O)N[C@@H]2CCc3c(C)n[nH]c32)c(C)n1 [Example 24, 1-[(6-{5-Azaspiro[2.3]hexan-5-yl}-2-methylpyridin-3-yl)methyl]-3-methyl-N-[(6R)-3-methyl1H,4H,5H,6H-cyclopenta[c]pyrazol-6-yl]-1H-pyrazole-4-carboxamide] | 2
6 | COCc1nn(Cc2cnc(N3CC4C(C3)C4(F)F)nc2C)cc1C(=O)N[C@@H]1CCc2c(C)n[nH]c21 (stereo partly drawn) [Example 26, 1-[(2-{6,6-Difluoro-3-azabicyclo[3.1.0]hexan-3-yl}-4-methylpyrimidin-5-yl)methyl]-3-(methoxy-methyl)-N-[(6R)-3-methyl-1H,4H,5H,6H-cyclo-penta[c]pyrazol-6-yl]-1H-pyrazole-4-carboxamide] | 3
7 | Cc1nc(N2CC3C(C2)C3(F)F)ncc1Cn1cc(C(=O)N[C@@H]2CCc3c(C)n[nH]c32)c(C)n1 (stereo partly drawn) [Example 27, 1-[(2-{6,6-Difluoro-3-azabicyclo[3.1.0]hexan-3-yl}-4-methylpyrimidin-5-yl)methyl]-3-methyl-N-[(6R)-3-methyl-1H,4H,5H,6H-cyclopenta[c]pyrazol-6-yl]-1H-pyrazole-4-carboxamide] | 3
8 | COCc1nn(Cc2cnc(N3CC4CC4C3)nc2C)cc1C(=O)N[C@@H]1CCc2c(C)n[nH]c21 (stereo partly drawn) [Example 28, 1-[(2-{3-Azabicyclo[3.1.0]hexan-3-yl}-4-methyl-pyrimidin-5-yl)methyl]-3-(methoxymethyl)-N-[(6R)-3-methyl-1H,4H,5H,6H-cyclopenta[c]pyrazol-6-yl]-1H-pyrazole-4-carboxamide] | 4
9 | Cc1nc(N2CC3(CC3)C2)ncc1Cn1cc(C(=O)N[C@@H]2CCc3c(C)n[nH]c32)c(C)n1 [Example 29, 1-[(2-{5-Azaspiro[2.3]hexan-5-yl}-4-methyl-pyrimidin-5-yl)methyl]-3-methyl-N-[(6R)-3-methyl-1H,4H,5H,6H-cyclpenta[c]pyrazol-6-yl]-1H-pyrazole-4-carboxamide] | 7
10 | Cc1nc(N2CC3(CC3)C2)ncc1Cn1cc(C(=O)N[C@@H]2CCc3c(C)n[nH]c32)cn1 [Example 30, 1-[(2-{5-Azaspiro[2.3]hexan-5-yl}-4-methyl-pyrimidin-5-yl)methyl]-N-[(6R)-3-methyl-1H,4H,5H,6H-cyclopenta[c]pyrazol-6-yl]-1H-pyrazole-4-carboxamide] | 8
11 | COCc1nn(Cc2cnc(N3CC4(CC4)C3)nc2C)cc1C(=O)N[C@@H]1CCc2c(C)n[nH]c21 [Example 31, 1-[(2-{5-Azaspiro[2.3]hexan-5-yl}-4-methyl-pyrimidin-5-yl)methyl]-3-(methoxymethyl)-N-[(6R)-3-methyl-1H,4H,5H,6H-cyclopenta[c]pyrazol-6-yl]-1H-pyrazole-4-carboxamide] | 10
12 | Cc1nc(N2CC3CC3C2)ccc1Cn1cc(C(=O)N[C@@H]2CCc3c(C)n[nH]c32)c(-c2cnn(C)c2)n1 (stereo partly drawn) [Example 32, 1-[(6-{3-Azabicyclo[3.1.0]hexan-3-yl}-2-methyl-pyridin-3-yl)methyl]-1′-methyl-N-[(6R)-3-methyl-1H,4H,5H,6H-cyclopenta[c]pyrazol-6-yl]-1H,1′H-[3,4′-bipyrazole]-4-carboxamide] | 2
13 | Cc1nc(N2CCCCC2)ccc1Cn1cc(C(=O)N[C@@H]2CCc3c2n[nH]c3C)cn1 [Example 34, N-[(6R)-3-Methyl-2H,4H,5H,6H-cyclopenta[c]pyrazol-6-yl]-1-{[2-methyl-6-(piperidin-1-yl)pyridin-3-yl]methyl}-1H-pyrazole-4-carboxamide] | 11
14 | Cc1nc(N2C[C@@H]3[C@@H](CO)[C@@H]3C2)ccc1Cn1cc(C(=O)N[C@@H]2CCc3c2n[nH]c3C)cn1 [Example 38, 1-({6-[(1R,5S,6R)-6-(Hydroxymethyl)-3-azabicyclo[3.1.0]hexan-3-yl]-2-methylpyridin-3-yl}methyl)-N-[(6R)-3-methyl-2H,4H,5H,6H-cyclopenta[c]pyrazol-6-yl]-1H-pyrazole-4-carboxamide] | 26
15 | Cc1nc(N2CC3CC(C2)C3O)ccc1Cn1cc(C(=O)N[C@@H]2CCc3c2n[nH]c3C)cn1 (stereo partly drawn) [Example 39, 1-[(6-{6-Hydroxy-3-azabicyclo[3.1.1]heptan-3-yl]-2-methylpyridin-3-yl)methyl]-N-[(6R)-3-methyl-2H,4H,5H,6H-cyclopenta[c]pyrazol-6-yl]-1H-pyrazole-4-carboxamide] | 9
16 | Cc1nc(N2CC3(CCOC3)C2)ccc1Cn1cc(C(=O)N[C@@H]2CCc3c2n[nH]c3C)cn1 [Example 40, N-[(6R)-3-Methyl-2H,4H,5H,6H-cyclopenta[c]pyrazol-6-yl]-1-[(2-methyl-6-{6-oxa-2-azaspiro[3.4]octan-2-yl]pyridin-3-yl)methyl]-1H-pyrazole-4-carboxamide] | 137
17 | Cc1nc(N2CC(C)(C#N)C2)ccc1Cn1cc(C(=O)N[C@@H]2CCc3c2n[nH]c3C)cn1 [Example 41, 1-{[6-(3-Cyano-3-methylazetidin-1-yl)-2-methylpyridin-3-yl]methyl}-N-[(6R)-3-methyl-2H,4H,5H,6H-cyclopenta[c]pyrazol-6-yl]-1H-pyrazole-4-carboxamide] | 13
18 | CCC1(C)CN(c2ccc(Cn3cc(C(=O)N[C@@H]4CCc5c4n[nH]c5C)cn3)c(C)n2)C1 [Example 42, 1-{[6-(3-Ethyl-3-methylazetidin-1-yl)-2-methylpyridin-3-yl]methyl}-N-[(6R)-3-methyl-2H,4H,5H,6H-cyclopenta[c]pyrazol-6-yl]-1H-pyrazole-4-carboxamide] | 6
19 | Cc1nc(N2CC3COCC(C3)C2)ccc1Cn1cc(C(=O)N[C@@H]2CCc3c2n[nH]c3C)cn1 [Example 43, N-[(6R)-3-Methyl-2H,4H,5H,6H-cyclopenta[c]pyrazol-6-yl]-1-[(2-methyl-6-{3-oxa-7-azabicyclo[3.3.1]nonan-7-yl]pyridin-3-yl)methyl]-1H-pyrazole-4-carboxamide] | 23
20 | COC1(C)CN(c2ccc(Cn3cc(C(=O)N[C@@H]4CCc5c4n[nH]c5C)cn3)c(C)n2)C1 [Example 44, 1-{[6-(3-Methoxy-3-methylazetidin-1-yl)-2-methylpyridin-3-yl]methyl}-N-[(6R)-3-methyl-2H,4H,5H,6H-cyclopenta[c]pyrazol-6-yl]-1H-pyrazole-4-carboxamide] | 20
21 | Cc1nc(N2CC3CC2C3)ccc1Cn1cc(C(=O)N[C@@H]2CCc3c2n[nH]c3C)cn1 [Example 49, 1-[(6-{2-Azabicyclo[2.1.1]hexan-2-yl}-2-methylpyridin-3-yl)methyl]-N-[(6R)-3-methyl-2H,4H,5H,6H-cyclopenta[c]pyrazol-6-yl]-1H-pyrazole-4-carboxamide] | 42
22 | Cc1nc(N2C[C@@H]3CNC(=O)[C@@H]3C2)ccc1Cn1cc(C(=O)N[C@@H]2CCc3c2n[nH]c3C)cn1 [Example 50, 1-({6-[(3aS,6aS)-4-Oxo-octahydropyrrolo[3,4-c]pyrrol-2-yl]-2-methylpyridin-3-yl}methyl)-N-[(6R)-3-methyl-2H,4H,5H,6H-cyclopenta[c]pyrazol-6-yl]-1H-pyrazole-4-carboxamide] | 8
23 | Cc1nc(N2CC3(C2)CC3(F)F)ccc1Cn1cc(C(=O)N[C@@H]2CCc3c2n[nH]c3C)cn1 [Example 51, 1-[(6-{1,1-Difluoro-5-azaspiro[2.3]hexan-5-yl}-2-methylpyridin-3-yl)methyl]-N-[(6R)-3-methyl-2H,4H,5H,6H-cyclopenta[c]pyrazol-6-yl]-1H-pyrazole-4-carboxamide] | 25
24 | COC1C2CC1CN(c1ccc(Cn3cc(C(=O)N[C@@H]4CCc5c4n[nH]c5C)cn3)c(C)n1)C2 (stereo partly drawn) [Example 53, 1-[(6-{6-methoxy-3-azabicyclo[3.1.1]heptan-3-yl}-2-methylpyridin-3-yl)methyI]-N-[(6R)-3-methyl-2H,4H,5H,6H-cyclopenta[c]pyrazol-6-yl]-1H-pyrazole-4-carboxamide] | 9
25 | Cc1nc(N2CC(CO)C2)ccc1Cn1cc(C(=O)N[C@@H]2CCc3c2n[nH]c3C)cn1 [Example 56, 1-({6-[3-(Hydroxymethyl)azetidin-1-yl]-2-methylpyridin-3-yl}methyl)-N-[(6R)-3-methyl-2H,4H,5H,6H-cyclopenta[c]pyrazol-6-yl]-1H-pyrazole-4-carboxamide] | 56
26 | Cc1nc(N2CC(C#N)C2)ccc1Cn1cc(C(=O)N[C@@H]2CCc3c2n[nH]c3C)cn1 [Example 57, 1-{[6-(3-Cyanoazetidin-1-yl)-2-methylpyridin-3-yl]methyl}-N-[(6R)-3-methyl-2H,4H,5H,6H-cyclopenta[c]pyrazol-6-yl]-1H-pyrazole-4-carboxamide] | 37
